From PubChem BioAssay (NCI)
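Dose response: 5 concentrations. Exposure: 48 h. Format: 96-well plates. Endpoint: linear interpolation; highest concentration if not reached. The concentration for 50% growth inhibition is given as GI50. The concentration for full growth arrest is given as TGI.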

Experiments:
Test in all cases: inhibition of tumour cell growth, NCI panel, 48 h
[1] = tested on: M14 melanoma
[2] = tested on: SN12C renal
[3] = tested on: MCF7 breast
[4] = tested on: HS 578T breast
[5] = tested on: SK-OV-3 ovarian
[6] = tested on: HCT-116 colon
[7] = tested on: MOLT-4 leukemia
[8] = tested on: SF-268 CNS
[9] = tested on: 786-0 renal
[10] = tested on: HOP-62 NSCLC
[11] = tested on: HCC-2998 colon
[12] = tested on: HCT-15 colon
[13] = tested on: SNB-19 CNS
[14] = tested on: OVCAR-5 ovarian
[15] = tested on: SNB-75 CNS
[16] = tested on: RPMI-8226 leukemia
[17] = tested on: HT29 colon
[18] = tested on: HL-60(TB) leukemia
[19] = tested on: K-562 leukemia
[20] = tested on: SF-295 CNS
[21] = tested on: U251 CNS
[22] = tested on: MDA-MB-435
[23] = tested on: T-47D breast
[24] = tested on: UO-31 renal
[25] = tested on: MDA-MB-231 breast
[26] = tested on: NCI-H522 lung
[27] = tested on: NCI-H460 lung
[28] = tested on: SF-539 CNS
[29] = tested on: SK-MEL-5 melanoma
[30] = tested on: A549 NSCLC
[31] = tested on: PC-3 prostate
[32] = tested on: TK-10 renal
[33] = tested on: OVCAR-8 ovarian
[34] = tested on: SK-MEL-28 melanoma
[35] = tested on: KM12 colon
[36] = tested on: NCI/ADR-RES ovarian
[37] = tested on: EKVX NSCLC
[38] = tested on: IGROV1 ovarian
[39] = tested on: SW-620 colon
[40] = tested on: OVCAR-4 ovarian
[41] = tested on: ACHN renal
[42] = tested on: UACC-257 melanoma

[O-]c1ccccc1/C=N/C(/N=C/c1ccccc1[O-])c1ccccc1O.[O-]c1ccccc1/C=N/C(/N=C/c1ccccc1[O-])c1ccccc1O.[Zr+4]
GI50 [1]: 46.6 µM | TGI [1]: > 100 µM | GI50 [2]: 57.3 µM | TGI [2]: > 100 µM | GI50 [3]: 35.9 µM | TGI [3]: > 100 µM | GI50 [4]: 12.5 µM | TGI [4]: 60 µM | GI50 [5]: 23.1 µM | TGI [5]: > 100 µM | GI50 [6]: 40.8 µM | TGI [6]: > 100 µM | GI50 [7]: 25.2 µM | TGI [7]: > 100 µM | GI50 [8]: 28 µM | TGI [8]: > 100 µM | GI50 [9]: 41.6 µM | TGI [9]: > 100 µM | GI50 [10]: 34.2 µM | TGI [10]: > 100 µM | GI50 [11]: 34.7 µM | TGI [11]: > 100 µM | GI50 [12]: 50.3 µM | TGI [12]: > 100 µM | GI50 [13]: 13.1 µM | TGI [13]: > 100 µM | GI50 [14]: 30 µM | TGI [14]: > 100 µM | GI50 [15]: 3.8 µM | TGI [15]: 61.1 µM | GI50 [16]: 24.5 µM | TGI [16]: > 100 µM | GI50 [17]: 42 µM | TGI [17]: > 100 µM | GI50 [18]: 30.6 µM | TGI [18]: > 100 µM | GI50 [19]: 44.3 µM | TGI [19]: > 100 µM | GI50 [20]: 31.8 µM | TGI [20]: > 100 µM | GI50 [21]: 36.7 µM | TGI [21]: > 100 µM | GI50 [22]: 28.2 µM | TGI [22]: > 100 µM | GI50 [23]: 28.3 µM | TGI [23]: > 100 µM | GI50 [24]: 14.4 µM | TGI [24]: 98.7 µM | GI50 [25]: 58.2 µM | TGI [25]: > 100 µM | GI50 [26]: 10.9 µM | TGI [26]: 65.3 µM | GI50 [27]: 34 µM | TGI [27]: > 100 µM | GI50 [28]: 17.8 µM | TGI [28]: > 100 µM | GI50 [29]: 22.4 µM | TGI [29]: > 100 µM | GI50 [30]: 40 µM | TGI [30]: > 100 µM | GI50 [31]: 50.9 µM | TGI [31]: > 100 µM | GI50 [32]: 43.6 µM | TGI [32]: > 100 µM | GI50 [33]: 26.7 µM | TGI [33]: > 100 µM | GI50 [34]: 17.1 µM | TGI [34]: 78.2 µM | GI50 [35]: 38.6 µM | TGI [35]: > 100 µM | GI50 [36]: > 100 µM | TGI [36]: > 100 µM | GI50 [37]: 46.1 µM | TGI [37]: > 100 µM | GI50 [38]: 56.4 µM | TGI [38]: > 100 µM | GI50 [39]: 26.6 µM | TGI [39]: > 100 µM | GI50 [40]: 26.1 µM | TGI [40]: > 100 µM | GI50 [41]: 36.1 µM | TGI [41]: > 100 µM | GI50 [42]: 33.4 µM | TGI [42]: > 100 µM
